Results published in patent US12116424B2, “Compounds and compositions for modulating Listeria virulence” (priority 2021, dated 2024).
Like-named read-outs stand apart in the source and are kept apart here. Where a SMILES comes first, the peptide text is derived from it. Bridges are numbered along the chain shown (N, C = ends). [ ]: non-standard residue; d: D form.

Legend:
L. monocytogenes AgrC [1] = molecular target: T1, L. monocytogenes AgrC (Listeria monocytogenes serovar 1/2a, UniProt Q8YAR5); test: Fluorescence (agr-GFP) reporter agonism assay, ΔagrD reporter strain; assay type: cell-based; design: Emax: dose or concentration left out as unconfirmed; details: for agonism activity (in words): ΔagrD reporter
T1 sequence (Q8YAR5 entry or part of it): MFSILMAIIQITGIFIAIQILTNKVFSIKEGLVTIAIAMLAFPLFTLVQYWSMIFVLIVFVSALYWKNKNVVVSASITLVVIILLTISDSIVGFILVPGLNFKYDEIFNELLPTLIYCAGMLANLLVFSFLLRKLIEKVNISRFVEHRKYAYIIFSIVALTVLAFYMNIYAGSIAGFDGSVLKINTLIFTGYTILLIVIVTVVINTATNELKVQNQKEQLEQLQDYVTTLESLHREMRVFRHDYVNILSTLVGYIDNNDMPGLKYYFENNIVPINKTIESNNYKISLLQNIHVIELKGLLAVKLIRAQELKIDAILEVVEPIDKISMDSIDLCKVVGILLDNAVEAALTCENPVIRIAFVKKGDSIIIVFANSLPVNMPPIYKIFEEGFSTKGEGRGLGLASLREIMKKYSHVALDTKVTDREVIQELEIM
Source text: (§1) Construction of Listeria agr Reporter Strains. A gene block was designed and purchased from Integrated DNA Technologies to contain an EagI recognition site, the PII promoter of the agr system, the 3′ UTR of hly, super folder GFP, and a SaII recognition site. The gene block was digested with EagI and SaII, cloned into an EagI/SaII-cut pAM401 plasmid resulting in the plasmid pAM401-KW1, and then transformed into E. coli XL1-Blue competent cells. The insertion into pAM401 was confirmed using Kapa polymerase and primers DAP337 and DAP338, and additional confirmation via commercial sequencing. Purified plasmid was transformed into the conjugative E. coli S17 strain, which was used to conjugate to EGD-e and EGD-e ΔagrD to generate the agr-GFP reporter strains EGD-e:pAM401-KW1 and EGD-e ΔagrD:pAM401-KW1. Conjugation was verified using primers DAP337 and DAP338.
(§2) Fluorescence reporter assay protocol. For QS (agr) reporter assays, peptide stock solutions in DMSO (1 mM) were serially diluted in DMSO, and 2 μL of solution was added to each well in a black 96-well plate (polystyrene microtiter plate, Costar). Agonism assays utilized the ΔagrD reporter strain, with 2 μL of 100 μM AIP (final concentration 1 μM) as a positive control and 2 μL of DMSO as a negative control. Antagonism assays utilized the EGD-e reporter strain, with 2 μL of DMSO as a positive control. In both assays, wells containing only BHI media served as negative controls for normalization. An overnight culture of bacteria was diluted 1:50 in fresh BHI, then 198 μL were transferred to each well (excluding the media control wells). Plates were then incubated at 37° C. for 24 hours with shaking at 200 rpm. Fluorescence of GFP (excitation at 500 nm, emission at 540 nm) and OD600 of each well was measured using BioTek Synergy 2 plate reader. Measurements were processed by subtracting background fluorescence (BHI media), correcting by OD600, and the normalizing using the 1 μM AIP or the DMSO control for the agonism and antagonism assays, respectively. Non-linear regression curves were fitted to the data sets in GraphPad Prism 7 by using variable slope (four-parameter) dose-response analysis to obtain potency, efficacy, and statistical information about the activity of tested peptides. Each peptide was tested with three technical replicates and three biological replicates. All data derived from fluorescent reporter strains are represented with data points signifying the mean and error bars signifying the standard deviation from all replicates.
Preparation and Validation of Listeria agr Reporter Strains. In order to facilitate profiling the native AIP and its analogs for agr activity, L. monocytogenes agr GFP reporters were designed and constructed as described above (see Materials and General Methods). Briefly, a plasmid containing the agr promoter region upstream of gfp was transformed into wild-type (EGD-e) and ΔagrD L. monocytogenes strains. The wild-type reporter naturally produces its own AIP and is able to activate AgrC, which may subsequently phosphorylate AgrA for productive binding to DNA and triggering the production of GFP (FIG. 1A). The ΔagrD reporter, lacking the ability to produce its own AIP and thereby activate AgrC, is unable to trigger substantial production of GFP. However, adding exogenous AIP to the ΔagrD reporter results in an increase of fluorescence, indicating agr activity has been restored.

L. monocytogenes AgrC [2] = molecular target: T1, L. monocytogenes AgrC; test: Fluorescence (agr-GFP) reporter antagonism assay, wild-type EGD-e reporter strain; assay type: cell-based
Source text: as §1, §2
Preparation and Validation of Listeria agr Reporter Strains. […] However, adding exogenous AIP to the ΔagrD reporter results in an increase of fluorescence, indicating agr activity has been restored.

[3] = tested on: L. monocytogenes EGD-e ΔagrD; test: Crystal violet biofilm assay, ΔagrD strain (agonists); assay type: cell-based, Listeria monocytogenes
Description: Biofilm assay protocol. Biofilms assays were adapted from previous reports and protocols.^51-52 Overnight cultures of L. monocytogenes EGD-e and ΔagrD were grown in BHI, then diluted 1:100 in LB. For single-point assays, 2 μL of agonists or antagonists at an appropriate concentration were added to wells in a clear 96-well microtiter plates. For dose-response assays, a stock solution of the select peptide were serially diluted in DMSO, then 2 μL of each concentration were transferred to the appropriate wells. Then, 198 μL of bacteria were added to their respective wells, using ΔagrD for agonist wells and EGD-e for antagonist wells. In each plate, additional vehicle controls for baseline biofilm formation of EGD-e and ΔagrD strains (2 μL of DMSO) were included, as well as a media control (200 μL of LB). Plates were incubated at room temperature for 24 hours statically, at which point plates were inverted over a glass waste container and gently shook to remove planktonic bacteria. The wells were gently washed with 200 μL of PBS twice, inverting again over the waste container to remove liquid. Then, 200 μL of 0.1% crystal violet solution (in water) were added to each well and incubated for 30 minutes. The wells were then washed with 200 μL of PBS three more times and left to air dry for 15 minutes. Remaining crystal violet was solubilized by the addition of 100 μL of 95% ethanol in water solution, pipetting up and down to mix, incubated for 10 minutes, then absorbance was read at 595 nm. Absorbance data was processed by normalizing to the EGD-e vehicle control (100%) and the LB media control (0%). Non-linear regression curves were fitted to the data sets in GraphPad Prism 7 by using variable slope (four-parameter) dose-response analysis to obtain potency, efficacy, and statistical information about the activity of tested peptides. Each well was tested with four technical replicates and three biological replicates. All data derived from crystal violet biofilm assays are represented with data points signifying the mean and error bars signifying the standard deviation from all replicates.

[4] = read-out: Max Activation Observed

**Q.** Which results are given for `CSCC[C@@H]1NC(=O)[C@H](C)NC(=O)[C@@H](NC(=O)[C@H](C)N)CSC(=O)[C@H](C(C)C)NC(=O)[C@H](Cc2ccccc2)NC1=O` [AIP F3A, A-(C-A-M-F-V)] (H-ACAMFV; thioester 2-C; N-terminus assumed)?
**A.** Emax (L. monocytogenes AgrC [1]; [4]): 9.72%; agonism activity (in words) (L. monocytogenes AgrC [1]): abolished agonism activity; antagonism activity (in words) (L. monocytogenes AgrC [2]): no noticeable antagonism

**Q.** With `CSCC[C@@H]1NC(=O)[C@@H](Cc2ccccc2)NC(=O)[C@@H](NC(=O)[C@H](C)N)CSC(=O)[C@H](C(C)C)NC(=O)[C@H](Cc2ccccc2)NC1=O` [AIP F3dF, A-(C-dF-M-F-V)] (H-AC[dF]MFV; thioester 2-C; N-terminus assumed) as the compound, how does the Emax (L. monocytogenes AgrC [1]; [4]) read?
**A.** 6.63%

**Q.** And the “agonism activity (in words)” value (L. monocytogenes AgrC [1])?
**A.** largely inactive

**Q.** What about the “antagonism activity (in words)” value (L. monocytogenes AgrC [2]) of the same compound?
**A.** largely inactive

**Q.** Which results are given for `CSCC[C@H]1NC(=O)[C@H](Cc2ccccc2)NC(=O)[C@@H](NC(=O)[C@H](C)N)CSC(=O)[C@H](C(C)C)NC(=O)[C@H](Cc2ccccc2)NC1=O` [AIP M4dM, A-(C-F-dM-F-V)] (H-ACF[dM]FV; thioester 2-C; N-terminus assumed)?
**A.** increase in potency (L. monocytogenes AgrC [1]; agonism, relative to native AIP): three-fold; Emax (L. monocytogenes AgrC [1]; [4]): 111%; agonism activity (in words) (L. monocytogenes AgrC [1]): no effect on agonism; biofilm formation of ΔagrD strain (FIG. 9A) [3]: increase biofilm formation; biofilm production compared to vehicle controls ([3]; 10 μM, ΔagrD bacteria): doubled

**Q.** With `CC(C)C[C@@H]1NC(=O)[C@H](C(C)C)NC(=O)[C@@H](NC(=O)[C@@H](N)CO)CSC(=O)[C@H](CC(C)C)NC(=O)[C@H](Cc2c[nH]cn2)NC1=O` [L. weihenstephanensis AIP, S-(C-V-L-H-L), reference compound] (H-SCVLHL; thioester 2-C; N-terminus assumed) as the compound, how does the Emax (L. monocytogenes AgrC [1]; read-out: Max Activation) read?
**A.** 11.2%

**Q.** How did the Emax (L. monocytogenes AgrC [1]; read-out: Max Activation) turn out when `CSCC[C@@H]1NC(=O)[C@H](CO)NC(=O)[C@@H](NC(=O)[C@H](C)N)CSC(=O)[C@H](C(C)C)NC(=O)[C@H](Cc2ccccc2)NC1=O` [Lm AIP F3S, A-(C-S-M-F-V)] (H-ACSMFV; thioester 2-C; N-terminus assumed) was run?
**A.** 16.1%

**Q.** How did the Emax (L. monocytogenes AgrC [1]; read-out: Max Activation) turn out when `CC[C@H](C)[C@@H]1NC(=O)[C@H](Cc2ccccc2)NC(=O)[C@H](CC(=O)O)NC(=O)[C@@H](NC(=O)[C@@H](NC(=O)[C@H](CO)NC(=O)[C@@H](N)Cc2ccc(O)cc2)[C@@H](C)O)CSC(=O)[C@H](CCSC)NC1=O` [Sa AIP-I, Y-S-T-(C-D-F-I-M), reference compound] (H-YSTCDFIM; thioester 4-C) was run?
**A.** 12.2%

**Q.** Which Emax (L. monocytogenes AgrC [1]; read-out: Max Activation) does the source give for `CC(C)C[C@@H]1NC(=O)[C@H](CO)NC(=O)[C@H](CO)NC(=O)[C@@H](NC(=O)[C@H](C)NC(=O)[C@H](CC(N)=O)NC(=O)[C@@H](NC(=O)CN)C(C)C)CSC(=O)[C@H](Cc2ccccc2)NC1=O` [Sa AIP-II, G-V-N-A-(C-S-S-L-F), reference compound] (H-GVNACSSLF; thioester 5-C) here?
**A.** 12%

**Q.** `CC[C@H](C)[C@H](N)C(=O)N[C@@H](CC(N)=O)C(=O)N[C@H]1CSC(=O)[C@H](CC(C)C)NC(=O)[C@H](CC(C)C)NC(=O)[C@H](Cc2ccccc2)NC(=O)[C@H](C)NC1=O` [Sa AIP-III D4A, I-N-(C-A-F-L-L), reference compound] (H-INCAFLL; thioester 3-C) was tested. Which Emax (L. monocytogenes AgrC [1]; read-out: Max Activation) did it give?
**A.** 12.3%

**Q.** Which Emax (L. monocytogenes AgrC [1]; read-out: Max Activation) does the source give for `CC[C@H](C)[C@H](N)C(=O)N[C@@H](CC(N)=O)C(=O)N[C@H]1CSC(=O)[C@H](CC(C)C)NC(=O)[C@H](CC(C)C)NC(=O)[C@H](Cc2ccccc2)NC(=O)[C@H](CC(=O)O)NC1=O` [Sa AIP-III, I-N-(C-D-F-L-L), reference compound] (H-INCDFLL; thioester 3-C) here?
**A.** 11.3%

**Q.** What does the source list for `CC[C@H](C)[C@@H]1NC(=O)[C@H](Cc2ccccc2)NC(=O)[C@H](Cc2ccc(O)cc2)NC(=O)[C@@H](NC(=O)[C@@H](NC(=O)[C@H](CO)NC(=O)[C@@H](N)Cc2ccc(O)cc2)[C@@H](C)O)CSC(=O)[C@H](CCSC)NC1=O` [Sa AIP-IV, Y-S-T-(C-Y-F-I-M), reference compound] (H-YSTCYFIM; thioester 4-C)?
**A.** agonism or antagonism activity compared to vehicle (FIG. 1B) (L. monocytogenes AgrC [1]; 10 μM, wild-type reporter or ΔagrD reporter): minimal efficacy; Emax (L. monocytogenes AgrC [1]; read-out: Max Activation): 9.81%

**Q.** For `CC(C)[C@H](NC(=O)[C@H](CO)NC(=O)[C@H](C)N)C(=O)N[C@H]1CSC(=O)[C@H](Cc2ccccc2)NC(=O)[C@H](Cc2ccc(O)cc2)NC(=O)[C@H](C)NC(=O)[C@H](C)NC1=O` [Se AIP-I D1AS6A, A-S-V-(C-A-A-Y-F), reference compound] (H-ASVCAAYF; thioester 4-C), which Emax (L. monocytogenes AgrC [1]; read-out: Max Activation) is on record?
**A.** 12.4%

**Q.** How did the Emax (L. monocytogenes AgrC [1]; read-out: Max Activation) turn out when `C[C@H](N)C(=O)N[C@@H](CO)C(=O)N[C@@H](C)C(=O)N[C@H]1CSC(=O)[C@H](Cc2ccccc2)NC(=O)[C@H](Cc2ccc(O)cc2)NC(=O)[C@H](C)NC(=O)[C@H](C)NC1=O` [Se AIP-I D1AV3AS6A, A-S-A-(C-A-A-Y-F), reference compound] (H-ASACAAYF; thioester 4-C) was run?
**A.** 12.1%

**Q.** Which Emax (L. monocytogenes AgrC [1]; read-out: Max Activation) does the source give for `CC(C)[C@H](NC(=O)[C@H](CO)NC(=O)[C@@H](N)CC(=O)O)C(=O)N[C@H]1CSC(=O)[C@H](Cc2ccccc2)NC(=O)[C@H](Cc2ccc(O)cc2)NC(=O)[C@H](CO)NC(=O)[C@H](C)NC1=O` [Se AIP-I, D-S-V-(C-A-S-Y-F), reference compound] (H-DSVCASYF; thioester 4-C) here?
**A.** 8.65%

**Q.** With `CC(C)C[C@@H]1NC(=O)[C@H](Cc2ccc(O)cc2)NC(=O)[C@H](CC(N)=O)NC(=O)[C@H](CO)NC(=O)[C@@H](NC(=O)[C@@H]2CCCN2C(=O)[C@H](CC(N)=O)NC(=O)[C@H](Cc2ccc(O)cc2)NC(=O)[C@H](CCCCN)NC(=O)[C@H](CO)NC(=O)[C@H](C)NC(=O)[C@@H](N)CC(N)=O)CSC1=O` [Se AIP-II, N-A-S-K-Y-N-P-(C-S-N-Y-L), reference compound] (H-NASKYNPCSNYL; thioester 8-C) as the compound, how does the Emax (L. monocytogenes AgrC [1]; read-out: Max Activation) read?
**A.** 8.45%

**Q.** How did the Emax (L. monocytogenes AgrC [1]; read-out: Max Activation) turn out when `CC(C)C[C@@H]1NC(=O)[C@H](Cc2ccc(O)cc2)NC(=O)[C@H](CO)NC(=O)[C@H](C)NC(=O)[C@@H](NC(=O)[C@@H]2CCCN2C(=O)[C@H](CC(N)=O)NC(=O)[C@H](Cc2ccc(O)cc2)NC(=O)[C@H](CCCCN)NC(=O)[C@H](C)NC(=O)[C@H](C)NC(=O)[C@@H](N)CC(N)=O)CSC1=O` [Se AIP-III, N-A-A-K-Y-N-P-(C-A-S-Y-L), reference compound] (H-NAAKYNPCASYL; thioester 8-C) was run?
**A.** 8.73%

**Q.** What does the source list for A-(C-F-M-A-V) [AIP F5A]?
**A.** Max Activation Observed (L. monocytogenes AgrC [1]; Table 6, normalized with 1 μM AIP (100%) and media (0%) in ΔagrD reporter): 6.37%; agonism activity (in words) (L. monocytogenes AgrC [1]): abolished agonism activity; antagonism activity (in words) (L. monocytogenes AgrC [2]): no noticeable antagonism
